The experiment concerns normal human dermal fibroblast cultures. Description: Incorporation of radioactive (tritiated) thymidine into normal human dermal fibroblast cultures (fibroblast proliferation). The format is cell-based. The following applies: for % (thymidine incorporation relative to untreated control = 100) / cpm (counts per minute), tritiated thymidine incorporated: 48 hours contact, 24 hours labeling, EGF 1.67 × 10^−3 μM, vitamin C 20 μM, resveratrol 5 μM, or 5 μM resveratrol + 20 μM vitamin C; for cpm (counts per minute), tritiated thymidine incorporated: untreated control 10320; for %, difference relative to the untreated control / cpm, difference relative to the untreated control: same treatments, value in brackets. On the procedure:
The study has carried out by measuring the incorporation of radioactive thymidine into normal human dermal fibroblast cultures.
The fibroblast cultures were prepared according to the standard methods of cell culturing, i.e., in MEM/M199 medium marketed by Gibco, in the presence of sodium bicarbonate (1.87 mg/ml), L-glutamine (2 mM), penicillin (50 IU/ml) and 10% foetal calf serum (Gibco).
The test was carried out on cell cultures at 80% of confluence on 24-well plates. Resveratrol, at a concentration of 1.25 μM and 5 μM, was placed in contact with the cells for 48 hours. Labeling with tritiated thymidine ([methyl-3H] thymidine marketed by Amersham, 82 Ci/mmol) was carried out for 24 hours.
The level of tritiated thymidine incorporated was measured at the end of the test by acidic precipitation of the proteins on filters and counting by liquid scintillation.
The results were evaluated relative to a control consisting of cells which had not been treated.
A positive control [EGF: Epidermal Growth Factor] at 1.67×10^−3 μM, which was known to stimulate fibroblast proliferation, was introduced into the test by way of reference.
On the technique in general: Incorporation of labelled thymidine or its analogues reports DNA synthesis.

For `O=C1O[C@H]([C@@H](O)CO)C(O)=C1O` [vitamin C, ascorbic acid], the “% (thymidine incorporation relative to untreated control = 100)” value turned out to be 132%; the “cpm (counts per minute), tritiated thymidine incorporated” value (“cpm (counts per minute)” below) is 13595 cpm; the “%, difference relative to the untreated control” value is listed as “+32%”; the “cpm, difference relative to the untreated control” value is recorded as “(+3275) cpm”.

As for `Oc1ccc(C=Cc2cc(O)cc(O)c2)cc1` [resveratrol, 3,4′,5-Trihydroxystilbene], the “% (thymidine incorporation relative to untreated control = 100)” value is given as 110%; the “cpm (counts per minute)” value is reported as 11365 cpm; the “%, difference relative to the untreated control” value is given as “+10%”; the “cpm, difference relative to the untreated control” value was “(+1045) cpm”.

Consider “EGF: Epidermal Growth Factor, positive control known to stimulate fibroblast proliferation”, for which the “% (thymidine incorporation relative to untreated control = 100)” value was 283%; the “cpm (counts per minute)” value was 29214 cpm; the “%, difference relative to the untreated control” value is on record as “+183%”; the “cpm, difference relative to the untreated control” value is “(+18894) cpm”.

The values are drawn from patent US6753000B2, “Hydroxystilbene/ascorbic acid compositions for treating skin afflictions” (L'Oreal, priority 1999, dated 2004).
